The text below walks through data of patent US8088897B2, “Assay method for group transfer reactions” (BellBrook Labs, Inc., priority 2003, dated 2012).

Like-named read-outs stand apart in the source and are kept apart here.

The subject of one experiment is Ab 3642. Briefly: FP competition curves with Ab 3642 and PAP tracer. Format: binding, rabbit. Particulars: read-out: IC50 for displacement of tracer. Here is the method: N6-PAP-6F8 tracer is represented by the open symbols: ◯ (PAP), □ (PAPS). C8-PAP-F14 tracer is represented with the closed symbols: ● (PAP), ▪ (PAPS). PAP or PAPS was serially diluted two-fold in black mutiwell plates containing 50 mM phosphate buffer (pH 7.4), 150 mM NaCl, 0.1 mg/mL BGG, 1 nM C8-PAP-F14, and 1.5 uL purified Ab 3642 in a total volume of 12 μl or 1 nM N6-PAP-F8 and 0.5 uL 3642 Ab in a 20 uL volume. Polarization values were read after one hour at room temperature.
(§1) Competitors were serially diluted two-fold in a black 384-well microtiter plate containing 50 mM phosphate buffer (pH 7.4), 150 mM NaCl, 0.1 mg/mL BGG, 1 nM Tracer C8-PAP-F14, and either 1.5 uL Ab 3642 (A) or 3 uL Ab 1781 (B) in a total volume of 12 uL. After one hour incubation at room temperature, the polarization values were read on a Tecan Ultra (Ex485/Em535). The mean and standard deviation of duplicates for all data sets are shown.

The next experiment deals with Ab 1781. Description: FP competition curves with Ab 1781 and PAP tracer. Format: binding, rabbit. Particulars: 1 nM C8-PAP-F14 tracer, 3 uL Ab 1781; read-out: IC50 for displacement of tracer. The method, then: as §1
The test system of experiment [1] is Protein G-purified Anti-ADP antibody. Description: FP competition with 5-FAM-N6-ADP tracer and anti-ADP polyclonal antibody. Format: binding, rabbit. Particulars: 1 nM 5-FAM-N6-ADP tracer; for IC50: 19 hours room temperature, read-out: half maximal point in the competition curve (IC50); for amount required to displace the tracer: compared with ADP and ATP. The source says: To develop an anti-ADP antibody, 6-aminobutyl-ADP (Biolog Life Science Inst., Bremen, Germany) was conjugated to keyhole limpet hemocyanin with a suitable reagent such as glutaraldehyde and used to immunize rabbits. Other carrier proteins such as BSA or ovalbumin and other conjugation chemistries may be used. Attachment to carrier protein via the adenine ring exposes the ribosyl-phosphate moiety, where selectivity is required, and minimizes exposure of the adenine ring. The resulting antisera was tested for ADP binding affinity and selectivity in competitive fluorescence polarization binding assays. Synthesis of the fluor-ADP conjugates used as tracers in these binding assays is described below. […] The reaction mixtures consisted of 50 mM KPO4, 150 mM NaCl, 0.1 mg/mL BGG, 1 nM tracer, 3% Protein G-purified Anti-ADP antibody, and competitor. The reaction mixtures were incubated for 19 hours at room temperature. Competitors included ADP (∘), ATP (●), Adenosine (▪), and AMP (▴).

The target in experiment [2] is T1, SULT1E1 (Homo sapiens, UniProt P49888).
T1 construct: made in house; host or cells: E. coli
T1 sequence (P49888 1-294): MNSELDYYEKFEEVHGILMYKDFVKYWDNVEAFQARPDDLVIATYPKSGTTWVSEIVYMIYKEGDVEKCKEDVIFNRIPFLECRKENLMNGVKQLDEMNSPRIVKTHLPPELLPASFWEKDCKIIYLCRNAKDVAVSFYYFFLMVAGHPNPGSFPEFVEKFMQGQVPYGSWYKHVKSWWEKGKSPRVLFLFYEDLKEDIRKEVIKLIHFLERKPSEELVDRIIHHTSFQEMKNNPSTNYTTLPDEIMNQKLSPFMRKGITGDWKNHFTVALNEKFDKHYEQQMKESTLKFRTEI
Briefly: SULT1E1 enzymatic properties (Km, acceptor substrate specificity). The class given is biochemical. Particulars: for acceptor substrate specificity: purified SULT1E1. From the text:
In order to establish a sulfotransferase HTS assay method, SULT1E1, a SULT isoform, was first subcloned into an E. coli expression vector with a C-terminal 6× histidine tag and the expressed protein was purified by affinity chromatography and characterized with respect to its physical and enzymatic properties.

A further experiment addresses GDP monoclonal antibody. Briefly: FP competition binding of GDP vs GTP to monoclonal antibody-tracer complex. The arrangement: species or system mouse. Particulars: 2 nM far red Tracer, 0.85 μg/mL antibody, one hour. Here is the method:
Fluorescence intensity and polarization measurements utilizing the ADP-Alexa Fluor® or GDP-Alexa Fluor® tracers were performed on a Tecan Ultra or Safire^2™ plate reader (Durham, N.C.) using appropriate filter sets. For the ADP-Alexa Fluor®633 tracer, the filters for the Safire2 were 635 nm excitiation (LED) and 670 emission (20 nm bandwidth). The free tracer reference was set to 20 mP, and the buffer (with or without antibody) was used as the buffer blank for both the sample and free tracer reference wells. Data from binding and competition curves were fit to a variable slope sigmoidal dose-response curve and the IC50 were calculated using GraphPad Prism (GraphPad Software, San Diego, Calif.).
To identify suitable antibody/tracer pairs for FP assay development, equilibrium binding assays were performed by titrating ADP/GDP antibodies with a panel of ADP/GDP tracers (1-2 nM). The first well consisted of 1 mg/mL antibody in 30 μL of the final equilibrium buffer (i.e. 50 mM HEPES (pH 7.5), 0.01% Brij-35, 1 mM EGTA, 2 mM MgCl2, 0.5% DMSO, 20 mM EDTA, and 2 nM tracer). A two-fold serial dilution of the antibody was then performed in 15 μL of the same buffer. […]
In one example, the monoclonal antibody binding selectivity between GDP vs. GTP was analyzed and the results are set forth in FIG. 27. […]

The subject of another experiment is UGT 2B7 Baculosomes. Briefly: Mock UGT reactions: signal stabilization and reaction quenching. The class given is biochemical. Particulars: EGTA at 80 mM, sodium vanadate at 30 mM; for effect on UDP breakdown: 5 μM UDP added, no acceptor substrate. Here is the method: UGT enzymes are available only as crude membrane preparations that contain many other enzymes besides the desired UGT. Some of these contaminating enzymes can catalyze hydrolysis of the UDP molecule to UMP or Uridine, resulting in an unstable signal for the assay. To prevent this, agents such as sodium vanadate and EGTA are added to stabilize the assay signal by preventing breakdown of the UDP formed during the UGT reaction. […] The use of such a quenching reagent provides greater flexibility in experimental protocols because HTS assay plates may be read at any time after the quench reagent is added.

Experiment [3] has as its target polyclonal antibody raised against a mixture of UTP and UDP conjugated to KLH (UGT-1). Description: Competitive FP displacement of UTP tracers from anti-UDP/UTP antibody by uridine nucleotides. Format: binding, rabbit. The method, then: To detect UGT catalytic activity a series of experiments were performed using the antibodies and tracers described above. […] The antibody and 2 nM of a commercially available Alexa® 488-5-aminoalkynyl-UTP molecule (Molecular Probes) were added to wells of a black multiwell plate (Thermo Labsystems Pt# 7605) containing the indicated amounts of uridine nucleotides in 50 mM KPO4pH 7.5, 150 mM NaCl, 0.1 mg/ml BGG . Fluorescence polarization was read in a Tecan Ultra plate reader after several hours of equilibration at room temperature using a Ex485/Em535 filter set.
Applicants further note that the ability of the antibody to selectively recognize low micromolar concentrations of UDP in the presence of UDPGA concentrations typically used for UGT assays —50-100μM —is important for achieving a low signal to background. Varying the structure of the immunogen, as mentioned above, is one way to change the relative binding properties of antibodies for UDP and UDPGA. Another way that is not as immediately obvious is to vary the tracer structure. The method depends on the relative ability of UDP and UDPGA to competitively displace the tracer from antibody, and it is reasonable to assume that not all tracers will show the same relative response to the two nucleotides. An example of such tracer effects is summarized in FIGS. 10 A and B. In this example, two different tracers are compared. The tracers are conjugates of 5-aminoallyl UTP to two different amine reactive Alexa Fluors®, one with an excitation peak of 546 and the other with an excitation of 568. Both of these tracers are displaced from antibody (anti-UDP rabbit polyclonal Ab or UGT-1) in a similar manner by UDP. […] Thus, the signal to background of the UGT assay with a given antibody can be enhanced by identifying tracers that are displaced by UDP more effectively than UDPGA.

The target in experiment [4] is T1, SULT1E1. Particulars: acceptor substrate; read-out: Km, published values for purified recombinant SULT1E1; cited from earlier work.
Where [5] appears, read: 1 nM C8-PAP-F14 tracer, 1.5 uL Ab 3642.
The mark [6] stands for this setting: 2 nM Alexa 488-5-aminoalkynyl-UTP tracer, UGT-1 antibody, read-out: half maximal values (IC50) for competing off the tracer.
[7] abbreviates: Alexa 546 5-aminoallyl UTP tracer, UGT-1, read-out: IC50 for displacement of tracer from antibody.

What is called IC50 is the concentration that gives 50% inhibition. In general, Km refers to the substrate concentration at which the rate is half of its maximum.

Consider `Nc1ncnc2c1ncn2[C@@H]1O[C@H](COP(=O)(O)O)[C@@H](OP(=O)(O)O)[C@H]1O` [PAP, 3′-phosphoadenosine 5′-phosphate], for which the IC50 was 0.3 µM in the experiment with Ab 3642 (setting [5]); 0.3 µM in the experiment with Ab 3642 (C8-PAP-F14 tracer, Ab 3642); 0.3 µM in the experiment on Ab 1781. With `Nc1ncnc2c1ncn2[C@@H]1O[C@H](COP(=O)(O)OP(=O)(O)OP(=O)(O)O)[C@@H](O)[C@H]1O` [ATP, adenosine triphosphate], the IC50 in experiment [1] turned out to be 15 µM.

Regarding `Nc1ncnc2c1ncn2[C@@H]1O[C@H](COP(=O)(O)OS(=O)(=O)O)[C@@H](OP(=O)(O)O)[C@H]1O` [PAPS, 3′-Phosphoadenosine 5′-phosphosulphate], the values for the IC50 in the experiment with Ab 3642 (setting [5]) and in the experiment with Ab 1781 were 3.8 µM and 1.5 µM, respectively. On SULT1E1 [2] (donor, read-out: Km for PAPS with SULT1E1), the Km was about 0.05 µM. In the case of `Nc1nc2c(ncn2[C@@H]2O[C@H](COP(=O)(O)OP(=O)(O)O)[C@@H](O)[C@H]2O)c(=O)[nH]1` [GDP, guanosine diphosphate], the IC50 at GDP monoclonal antibody stood at 0.01 µM. Consider `Oc1cccc2ccccc12` [α-naphthol], for which the acceptor substrate specificity entry at SULT1E1 [2] was “intermediate”. On the same count and under the same terms, in the case of `NCCc1ccc(O)c(O)c1` [dopamine] it was “very poor substrates”. Turning to Sodium vanadate, in the experiment with UGT 2B7 Baculosomes, the “effect on UGT activity” value is “very effectively inhibits UGT activity” and the “effect on UDP breakdown” value is listed as “prevents UDP breakdown”. As for `O=C(O)CN(CCOCCOCCN(CC(=O)O)CC(=O)O)CC(=O)O` [EGTA], in the experiment on UGT 2B7 Baculosomes, the “effect on UGT activity” value is given as “minimal effects” and the “effect on UDP breakdown” value was “very effectively inhibits UDP breakdown”. With `Nc1ncnc2c1ncn2[C@@H]1O[C@H](CO)[C@@H](O)[C@H]1O` [adenosine, Adenosine], in experiment [1], the “amount required to displace the tracer” value is recorded as “much higher amounts”. On the same count and under the same terms, for `Nc1ncnc2c1ncn2[C@@H]1O[C@H](COP(=O)(O)O)[C@@H](O)[C@H]1O` [AMP] the value was “much higher amounts”. On to `O=c1ccn([C@@H]2O[C@H](COP(=O)(O)OP(=O)(O)OP(=O)(O)O)[C@@H](O)[C@H]2O)c(=O)[nH]1` [UTP], for which the IC50 in experiment [3] (setting [6]) worked out at 5 µM. With `C[C@]12CC[C@H](O)CC1=CC[C@@H]1[C@@H]2CC[C@]2(C)C(=O)CC[C@@H]12` [DHEA], the acceptor substrate specificity entry at SULT1E1 [2] is “very poor substrates”.

Turning to `C[C@]12CC[C@@H]3c4ccc(O)cc4CC[C@H]3[C@@H]1CC[C@@H]2O` [estradiol], the Km at SULT1E1 [4] was 0.005 to 0.015 µM. As for `O=c1ccn([C@@H]2O[C@H](COP(=O)(O)OP(=O)(O)O)[C@@H](O)[C@H]2O)c(=O)[nH]1` [UDP], the IC50 was 15 µM in experiment [3] (setting [6]); 7 µM in experiment [3] (setting [7]); 9 µM in experiment [3] (Alexa 568 5-aminoallyl UTP tracer, UGT-1, read-out: IC50 for displacement of tracer from antibody). Regarding `O=C(O)[C@H]1O[C@H](OP(=O)(O)OP(=O)(O)OC[C@H]2O[C@@H](n3ccc(=O)[nH]c3=O)[C@H](O)[C@@H]2O)[C@H](O)[C@@H](O)[C@@H]1O` [UDPGA, UDP-glucuronic acid], the IC50 in experiment [3] (2 nM Alexa 488-5-aminoalkynyl-UTP tracer, UGT-1 antibody, read-out: IC50 for competing off the tracer) was about 2000 µM; in experiment [3] (setting [7]), 1200 µM. In the case of `Nc1ncnc2c1ncn2[C@@H]1O[C@H](COP(=O)(O)OP(=O)(O)O)[C@@H](O)[C@H]1O` [ADP, adenosine diphosphate], the IC50 in experiment [1] is 0.3 µM. In the case of `Nc1nc2c(ncn2[C@@H]2O[C@H](COP(=O)(O)OP(=O)(O)OP(=O)(O)O)[C@@H](O)[C@H]2O)c(=O)[nH]1` [GTP, guanosine triphosphate], the IC50 on GDP monoclonal antibody was determined as 1.3 µM.
